The text below walks through data of paper PMC7552917, “Systematic exploration of different E3 ubiquitin ligases: an approach towards potent and selective CDK6 degraders” (Chemical Science, 2020).

Broadly, the IC50 is the concentration at which inhibition is half-maximal. Read a high IC50 as a need for much substance. The term Dmax denotes the largest share of the target that was removed. For orientation: DC50 means the concentration at which degradation of the target reaches its halfway point. Higher therefore signals degradation only at high concentration.

Like-named read-outs stand apart in the source and are kept apart here.

Data set [1] in a line: Susceptibility to hydrolysis in buffer, LC/MS. The following applies: buffer pH 1, 24 h, 37 °C. The format is physicochemical. The procedure: Next, we investigated the persistence of CDK6 degradation after single drug exposure. […] The differences were even more pronounced when conducting a drug washout-step, showing that while BSJ-03-123 kept CDK6 protein below 50% for a maximum of 6 h, CDK6 degradation mediated by PROTACs 27 and 34 was more persistent and stable for up to 72 h (Fig. 4E and S10, ESI ^†). […] Since these degraders mainly differ in the ligase-binding part, we hypothesized that the deviations in the long-term experiments (Fig. 5A) are due to chemical inactivation of the CRBN ligand. We then tested compounds 27, 34 (VHL-based) and BSJ-03-123 (8, CRBN-based) for susceptibility to hydrolysis. These PROTACs were incubated in two different buffers for 24 h at 37 °C and aliquots were analysed by LC/MS.
Fig. 5 (A) Quantification of long-term treatment experiments (see Fig. S9, ESI ^†) and (B) drug stability data at pH 1 and pH 7.4. Acetonitrile solutions of the PROTACs were mixed with two different buffers and incubated for 24 hours at 37 °C. Subsequently, aliquots were analysed by LC/MS and normalized to acetonitrile solutions.

Data set [2] in a line: elog D7.4 by chromatographic (HPLC) method. The format is physicochemical. The following applies: Polaris C18-A column, pH 7.4, read-out: elog D7.4 (experimental distribution coefficient at pH 7.4).
A further data set relates to HEL cells. Description: Cell viability assay (CellTiter-Glo), HEL cells. The format is cell-based. The following applies: Homo sapiens, 96 h. As to the method: (§1) Multiple myeloma, leukaemia, and murine cell lines:
(§2) Cells were seeded in 96-well plates with media containing indicated concentrations of respective compounds and plates were incubated at 37 °C for 96 hours. Readout was performed with CellTiter-Glo® Luminescent Cell Viability Assay (Promega) according to the manufacturer’s protocol and luminescence was measured with POLARStar Omega plate reader (BMG LabTech). All results were normalized to non-treated conditions and data represent mean ±SD of biological triplicates. […]
(§3) Dose response curves were modeled and plotted by using GraphPad Prism software (GraphPad Software). Statistical analysis was performed using GraphPad Prism software (GraphPad Software).
(§4) Variance of biological replicates is represented as the standard error of the mean (SEM) or as the […]
In general terms: ATP-based viability assays read luminescence as a measure of living cells.

Data set [3] relates to MM.1S, LP-1, AMO-1, MOLM-13, HEL, KG-1, K562, Nalm-6. Nature of the data set: Cell viability assay (CellTiter-Glo), multiple myeloma and leukemia cell lines. The following applies: MM.1S, LP-1, AMO-1, MOLM-13, HEL, KG-1, K562, Nalm-6; 96 h, 0.1 or 1 μM. It counts as cell-based, human. As to the method: as §1, §2, §3, §4
For another data set, the target named is T1, CDK6 (Homo sapiens, UniProt Q00534).
T1 construct: Percentage values are normalized to DMSO-treated MM.1S cells and the respective loading controls; endogenous in cells; host or cells: MM.1S (human multiple myeloma)
Description: CDK6 degradation, western blot of MM.1S cells. The format is cell-based. In general terms: Immunoblotting shows a protein as a band on a membrane.

In data set [4] the test system is MDA-MB-231 cells. Description: Cell viability assay (CellTiter-Glo), MDA-MB-231 breast cancer cells. The following applies: 96 h. The format is cell-based, human. As to the method:
Breast cancer cell lines:
To access the compound effect on cell viability, cells were plated in 384-well tissue culture-treated plates (Greiner Bio One). Twenty-four hours later, tested compounds were added into culture to the desired concentrations. Cell viability was measured by using CellTiter-Glo® Luminescent Cell Viability Assay (Promega) at day 4 or day 7 post-treatment and normalized by non-treated controls. […]
as §3, §4

In another data set the target is T2, CDK4 (Homo sapiens, UniProt P11802).
T2 construct: Percentage values are normalized to DMSO-treated MM.1S cells and the respective loading controls; endogenous in cells; host or cells: MM.1S (human multiple myeloma)
Description: CDK4 degradation, western blot of MM.1S cells. It counts as cell-based. The following applies: 16 h; for remaining activity at 0.1 µM: MM1.S, read-out: D CDK4: remaining CDK4 levels.

Data set [5] concerns MDA-MB-231 cells. Description: Cell migration (wound-healing) assay. The format is cell-based, human. The following applies: 0.1 μM, 24 h post-scratch. The procedure:
In total 800.000 MDA-MB-231 breast cancer cells were seeded on uncoated 24-well plates (Starlab).
After 24 h DMEM medium (Pan Biotech) was removed, wells were washed twice with PBS and incubated with 0.1 µM palbociclib, 0.1 µM 34, 0.1 µM VH298 or DMSO in fresh FCS-free medium.
After 24 h of incubation, a scratch was conducted with a 100 µL pipette tip (Starlab), medium was removed, wells were washed twice with PBS and again incubated with fresh FCS-free medium containing the compounds at the aforementioned concentrations. Wound healing was observed microscopically for 24 h with 10-fold magnification (Axiovert 100, Zeiss, Germany). Migration speed was quantified according to the reduced scratch wound area over time.
as §3, §4

T1 sequence (Q00534 whole entry): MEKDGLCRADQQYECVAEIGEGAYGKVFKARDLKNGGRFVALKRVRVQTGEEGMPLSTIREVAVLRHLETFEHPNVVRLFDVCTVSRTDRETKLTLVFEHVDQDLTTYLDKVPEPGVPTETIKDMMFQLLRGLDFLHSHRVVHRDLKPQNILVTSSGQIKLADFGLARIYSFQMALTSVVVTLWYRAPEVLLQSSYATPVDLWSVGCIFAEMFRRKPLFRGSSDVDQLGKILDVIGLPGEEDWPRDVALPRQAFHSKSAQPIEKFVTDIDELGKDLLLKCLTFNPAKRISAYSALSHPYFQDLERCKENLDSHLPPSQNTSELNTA
T2 sequence (P11802 whole entry): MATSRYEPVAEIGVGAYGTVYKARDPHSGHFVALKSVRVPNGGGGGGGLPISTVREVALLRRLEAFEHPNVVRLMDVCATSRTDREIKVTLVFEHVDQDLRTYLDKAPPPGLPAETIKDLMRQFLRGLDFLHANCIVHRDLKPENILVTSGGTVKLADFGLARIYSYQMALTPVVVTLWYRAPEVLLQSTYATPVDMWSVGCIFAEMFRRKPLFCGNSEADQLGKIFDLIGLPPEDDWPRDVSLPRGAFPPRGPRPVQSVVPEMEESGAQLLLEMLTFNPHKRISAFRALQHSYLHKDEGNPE

For `CC(=O)c1c(C)c2cnc(Nc3ccc(N4CCN(CCOCCOCCOc5cc(-c6scnc6C)ccc5CNC(=O)[C@@H]5C[C@@H](O)CN5C(=O)[C@@H](NC(=O)C5(F)CC5)C(C)(C)C)CC4)cn3)nc2n(C2CCCC2)c1=O` [34 (CST651)], the “Stability to hydrolysis at pH 1” value in data set [1] is “stable”. For the same molecule, the chromatographic logD in data set [2] stood at 3.1. This molecule displayed an IC50 in the data set with HEL cells of 450 nM. Further, in data set [3], the “Effect on cell proliferation” value is listed as “inhibited cell proliferation”. Moreover, the “Selectivity ratio D CDK4/D CDK6 for the degradation of CDK6 over CDK4” value on CDK6 (0.1 μM, 16 h, MM.1S cells) is 31. The remaining activity at 0.1 µM at CDK6 (MM1.S, 0.1 μM, 16 h, MM.1S cells, normalized to DMSO (100%), read-out: D CDK6: remaining CDK6 levels) is 1.4%; on CDK4 (0.1 μM, MM.1S cells, normalized to DMSO (100%)) it was 44%. In addition, on CDK6 (MM1.S, 1 μM, 16 h, MM.1S cells, normalized to DMSO (100%), read-out: D CDK6: remaining CDK6 levels), the remaining activity at 1 µM is 8.5%. In addition, the Dmax at CDK6 (MM1.S, MM.1S cells, 16 h, at a concentration as low as 100 nM, read-out: Dmax: maximum of CDK6 degradation) is more than 95%. For the same molecule, the “Time CDK6 degradation persists (CDK6 protein below 50%) after drug washout” value at CDK6 (MM.1S cells, 0.1 μM for 16 h, then washout with PBS) was “up to 72 h”. Moreover, the DC50 turned out to be 5.1 nM on CDK6 (MM.1S cells, 16 h, 1 μM value excluded (hook effect)) and 20 nM on CDK4 (MM.1S cells). Besides, the “Persistence of CDK6 degradation after single drug exposure (long-term treatment)” value at CDK6 (MM.1S cells, no washout) was “satisfactory CDK6 level suppression even after 96 h”. Also, the “Inhibitory activity on cell viability relative to palbociclib” value in the data set on MDA-MB-231 cells [4] was “inhibitory activity comparable to palbociclib”. Besides, the “Reduction of wound healing” value in the data set with MDA-MB-231 cells [5] was 29%.
Regarding `Cc1ncsc1-c1ccc(CNC(=O)[C@@H]2C[C@@H](O)CN2C(=O)[C@@H](NC(=O)C2(C#N)CC2)C(C)(C)C)cc1` [4 (VH298), VH298, reference compound], the remaining activity at 0.1 µM at CDK6 (MM1.S, 16 h, read-out: D CDK6: remaining CDK6 levels) was more than 95%; on CDK4, more than 95%. Also, the “Reduction of wound healing” value with MDA-MB-231 cells [5] is on record as “did not affect the ability of MDA-MB-231 cells to migrate”.
Consider `CC(=O)c1c(C)c2cnc(Nc3ccc(N4CCNCC4)cn3)nc2n(C2CCCC2)c1=O` [palbociclib, reference compound], for which the IC50 is 4160 nM with HEL cells and 260 nM in the data set with MDA-MB-231 cells [4] (Homo sapiens). In the data set on MDA-MB-231 cells [5], the “Reduction of wound healing” value is given as 17%.
